# Assay results reported in publication PMC10383195, “Interactions of the Kv1.1 Channel with Peptide Pore Blockers: A Fluorescent Analysis on Mammalian Cells” (Membranes, 2023).
# Molecular target: T1, mKate2-tagged human Kv1.1 (S369T) channel (K-Kv1.1) (Homo sapiens, UniProt Q09470, S369T)
# T1 construct: these fragments were combined and amplified using terminal primers to obtain the whole mutated gene; expressed in transfected cells; host or cells: mouse neuroblastoma Neuro2a cells, transient transfection with pmKate2-KCNA1m1
# Assay: Competitive binding of peptide pore blocker and A-HgTx to K-Kv1.1 on the plasma membrane of Neuro2a cells (confocal microscopy)
# Conditions: complete medium (closed channels), Neuro2a cells, A-HgTx 2 nM, 60 min; Cheng-Prusoff from DC50; mean ± SEM, two independent experiments; SEM; read-out: Kap (apparent dissociation constant of complex with K-Kv1.1)
# Experimental: To analyze the binding of A-HgTx, A-HgTx (0.25–4 nM) was added to cells in a complete medium for 60 min. To analyze competitive binding, A-HgTx (2 nM), together with the selected peptide (0.05–160 nM), was added to cells in a complete medium for 60 min.
# To compare ligand binding with closed and open channels, ligands were added to cells (60 min, 37 °C) in a buffer (20 mM HEPES pH 7.4, 0.9 mM CaCl2, 0.5 mM MgCl2, 0.1% BSA) supplemented with 4 mM KCl and 150 mM NaCl (Na^+ buffer) or with 150 mM KCl (K^+ buffer).
# The fluorescence of the K-Kv1.1 and K-Kv1.1wt channels was excited at 561 nm and detected in the 650–700 nm region. A-HgTx fluorescence was excited at 488 nm and detected in the 495–535 nm region. Sequential scanning was used to measure the cellular distributions of A-HgTx and mKate2 fluorescence in order to avoid interference of mKate2 fluorescence with cellular autofluorescence excited at 488 nm.
# Quantitative analysis of the interaction of A-HgTx with K-Kv1.1 was carried out in accordance with the procedure developed previously for A-HgTx and the fluorescently labeled Kv1.3 channel. Briefly, the regions of interest with K-Kv1.1 on the plasma membrane were selected in the confocal images and used to create binary (0;1) masks that described the membranous distribution of K-Kv1.1. The confocal images of K-Kv1.1 and A-HgTx were multiplied by the corresponding mask, and the average fluorescence intensities of A-HgTx (Ili) and K-Kv1.1 (Ici) corrected for the background signal were calculated for each i-cell. Ratio Ri = Ili/Ici was calculated and averaged over 15–20 cells to obtain the Rav value and the standard deviation.
# To analyze the competitive binding of the studied peptide pore blocker and A-HgTx to K-Kv1.1 on the cellular membrane, Rav data were plotted depending on the blocker concentration (C) at the constant A-HgTx concentration (L) and fitted with the following equation:Rav(C) = Rav0/(1 + C/DC50)(3) where DC50 is the blocker concentration displacing 50% of A-HgTx from the complex with K-Kv1.1, and Rav0 is Rav at C = 0.
# The apparent dissociation constant (Kap) of the complex between the studied blocker and the K-Kv1.1 channel was calculated using the Cheng–Prusoff equation:Kap = DC50/(1 + L/Kd).(4)
# Two independent experiments were performed, and the Kav data were averaged and presented as mean ± SEM. Fifteen to twenty-five treated cell images were the average value for each point on the curves of A-HgTx binding to the K-Kv1.1 channel.
# T1 sequence (Q09470 whole entry S369T, the tested form may be a part): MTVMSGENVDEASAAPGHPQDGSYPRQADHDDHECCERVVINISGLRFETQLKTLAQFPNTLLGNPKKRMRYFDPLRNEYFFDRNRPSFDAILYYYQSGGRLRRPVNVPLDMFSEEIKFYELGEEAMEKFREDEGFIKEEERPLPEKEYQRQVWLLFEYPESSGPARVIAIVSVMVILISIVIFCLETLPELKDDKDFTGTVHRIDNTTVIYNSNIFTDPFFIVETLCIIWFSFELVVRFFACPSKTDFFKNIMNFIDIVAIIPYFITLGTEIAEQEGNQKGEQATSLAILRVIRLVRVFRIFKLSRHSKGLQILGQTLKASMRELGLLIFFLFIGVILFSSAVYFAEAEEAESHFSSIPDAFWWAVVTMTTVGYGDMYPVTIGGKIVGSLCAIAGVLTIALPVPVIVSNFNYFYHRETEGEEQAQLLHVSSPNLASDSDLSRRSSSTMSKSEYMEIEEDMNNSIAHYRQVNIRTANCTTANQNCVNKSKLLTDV
row,Structure (SMILES),Kd [nM]
1,"CC[C@H](C)[C@@H]1NC(=O)[C@@H]2CSSC[C@@H]3NC(=O)[C@H](CCCCN)NC(=O)[C@H](CCCNC(=N)N)NC(=O)[C@H](CC(N)=O)NC(=O)[C@H](CCSC)NC(=O)[C@H](CSSC[C@H](NC(=O)[C@H](CO)NC(=O)[C@@H](NC(=O)[C@H](CC(N)=O)NC(=O)[C@@H](NC(=O)[C@@H]4CCCN4C(=O)[C@@H](NC(=O)CN)C(C)C)[C@@H](C)CC)C(C)C)C(=O)N[C@@H]([C@@H](C)O)C(=O)NCC(=O)N[C@@H](CO)C(=O)N4CCC[C@H]4C(=O)N[C@@H](CCC(N)=O)C(=O)N2)NC(=O)[C@H](CCCCN)NC(=O)CNC(=O)[C@H](Cc2ccccc2)NC(=O)[C@H](CCCNC(=N)N)NC(=O)[C@H](CCSC)NC(=O)CNC(=O)[C@H](C)NC(=O)[C@H](CC(=O)O)NC(=O)[C@H](CCCCN)NC(=O)[C@H](CSSC[C@@H](C(=O)N[C@H](C(=O)N2CCC[C@H]2C(=O)N[C@@H](CCCCN)C(=O)O)[C@@H](C)O)NC(=O)[C@H](Cc2c[nH]cn2)NC3=O)NC(=O)[C@@H]2CCCN2C(=O)[C@H](CCCCN)NC1=O [AgTx2, agitoxin 2]",1.5 ± 0.7
2,"CC[C@H](C)[C@H](NC(=O)[C@H](CCC(=O)O)NC(=O)[C@@H](NC(=O)CN)C(C)C)C(=O)N[C@@H](CC(N)=O)C(=O)N[C@H](C(=O)N[C@@H](CCCCN)C(=O)N[C@H]1CSSC[C@@H]2NC(=O)[C@H](CCCCN)NC(=O)CNC(=O)[C@H](Cc3ccccc3)NC(=O)[C@H](CCCNC(=N)N)NC(=O)[C@H](CCSC)NC(=O)CNC(=O)[C@H](C)NC(=O)[C@H](CC(=O)O)NC(=O)[C@H](CCCCN)NC(=O)[C@@H]3CSSC[C@@H](C(=O)N[C@H](C(=O)N4CCC[C@H]4C(=O)N[C@@H](CCCCN)C(=O)O)[C@@H](C)O)NC(=O)[C@H](Cc4c[nH]cn4)NC(=O)[C@H](CSSC[C@H](NC(=O)[C@H](CCC(N)=O)NC(=O)[C@@H]4CCCN4C(=O)[C@H](CO)NC(=O)CNC(=O)[C@H](CO)NC1=O)C(=O)N[C@@H](CC(C)C)C(=O)N[C@@H](CCCCN)C(=O)N1CCC[C@H]1C(=O)N3)NC(=O)[C@H](CCCCN)NC(=O)[C@H](CCCNC(=N)N)NC(=O)[C@H](CC(N)=O)NC(=O)[C@H](CCSC)NC2=O)C(C)C [KTx1, kaliotoxin 1]",0.12 ± 0.08
